In US20130274233A1, “MODULATORS OF HEDGEHOG SIGNALING PATHWAY” (priority 2012, published 2013):
Values joined by “and” are separate entries in the source; they are usually repeats but may differ in a detail not shown here. Equal values may be shown once.

Assays:
Assay type in all cases: cell-based
Smo = assay: Gli-luciferase reporter induced by Smo::GFP overexpression (Smo/LightII cells); conditions: Mus musculus, Shh Light II; 3T3/Smo::GFP Overexpression/Shh-LightII; stimulus none; read-out: IC50, inhibition of expression of Gli-luciferase reporter induced by Smo::GFP overexpression
From the text: NIH/3T3 cells were maintained in DMEM containing 10% (v/v) calf serum, penicillin, streptomycin, and L-glutamine. HEK293, L, cos 7, and suFU−/− mouse embryonic fibroblast cells were maintained in DMEM containing 10% (v/v) fetal bovine serum, penicillin, streptomycin, and L-glutamine. Smo::EGFP, SmoM2::GFP, and Ivs::tagRFPT were cloned into pBabe to generate retroviral particles for infection. Smo::EGFP/Ivs::tagRFPT and SmoM2::GFP/Ivs::tagRFPT stable cell lines were generated through viral infection of NIH/3T3^12. A ShhLightII Gli reporter cell line was obtained from the American Type Culture Collection (ATCC) and used in luciferase reporter assays to measure Hh pathway activity. […]
Hh activity assays were performed using ShhLightll cells, Smo/Lightll cells, SmoM2/Lightll cells, and suFU−/− mouse embryonic fibroblasts. In the suFU−/− cells, Hh activity was measured after co-transfection with Gli driven firefly luciferase and TK-renilla luciferase reporters^41. Wnt activity was measured in 293 cells co-transfected with Top-flash and TK-renilla luciferase reporters^42. Cells were cultured and treated in 96 well assay plates (Corning) and incubated with Duo-Glo luciferase substrates (Promega) to measure firefly and renilla luciferase activity sequentially using a Top Count NX Microplate Scintillation and Luminescence Counter (Perkin Elmer). […]

SmoM2::GFP = biological target: T1, SmoM2::GFP (Homo sapiens, UniProt Q99835, W535L); assay: Ciliary localization of SmoM2::GFP (3T3/SmoM2::GFP Overexpression/Ivs::tagRFPT)
T1 construct: expressed in transfected cells
From the text: NIH/3T3 cells were maintained in DMEM containing 10% (v/v) calf serum, penicillin, streptomycin, and L-glutamine. HEK293, L, cos 7, and suFU−/− mouse embryonic fibroblast cells were maintained in DMEM containing 10% (v/v) fetal bovine serum, penicillin, streptomycin, and L-glutamine. Smo::EGFP, SmoM2::GFP, and Ivs::tagRFPT were cloned into pBabe to generate retroviral particles for infection. Smo::EGFP/Ivs::tagRFPT and SmoM2::GFP/Ivs::tagRFPT stable cell lines were generated through viral infection of NIH/3T3^12. A ShhLightII Gli reporter cell line was obtained from the American Type Culture Collection (ATCC) and used in luciferase reporter assays to measure Hh pathway activity. The cell line contains a stably integrated Gli-responsive Firefly luciferase reporter and a constitutive Renilla luciferase expression construct^33. Subclones expressing Smo or SmoM2 in ShhLightII cells were used for chemical epistasis analyses.
(§1) Cells were cultured and treated in 384-well imaging plate precoated with poly-D-Lysine (Greiner Bio-one), fixed with 4% paraformaldehyde (Electron Microscopy Sciences), and stained with Hoechst (Invitrogen). Images were collected using Opera High Content Screening System (Perkin Elmer). Activityl)ase (IDBS Inc, Emeryvill, Calif.) and Pipeline Pilot (Accelrys, Inc. San Diego, Calif.) were used for high content screening data management and analysis. Acapella 2.0 software (Evotec Technologies/PerkinElmer) was used to perform multi-parametrical high content image quantification. All the images for comparison were scanned with identical microscopic settings and analyzed with the same input parameters.
(§2) Acapella 2.0 software (Evotec Technologies/PerkinElmer) was used to perform multi-parametric high content image quantification. Our image analysis script used Ivs::tagREPT to first determine the location of the PC and then Smo::EGFP to quantify the level of Smo present in the cilium.

Smo::EGFP [1] = biological target: T2, Smo::EGFP (Homo sapiens, UniProt Q99835); assay: SAG-induced Smo::GFP ciliary accumulation (3T3/Smo::GFP/Ivs::tagRFPT); conditions: 3T3/Smo::GFP/Ivs::tagRFPT cells; 100 nM SAG; read-out: IC50, inhibition of SAG-induced Smo::GFP ciliary accumulation
T2 construct: expressed in transfected cells
Description: as §1, §2
The inventors used the spot-finding algorithm in the RFP channel to find Ivs-rich spots. Each non-overlapping spot was based on a maximum 8 pixel-radius (when using a 40× objective) around a central intensity peak of 5 pixels. A distance of at least 10 pixels was required between adjacent spot centers. […] The average, maximum and total RFP intensity of each spot were measured. […]

Smo::EGFP [2] = biological target: T2, Smo::EGFP; assay: Cyc-induced Smo ciliary accumulation (Smo::EGFP/Ivs::tagRFPT cells); conditions: 5 μM Cyc
Description: as §1, §2

primary cilium (PC) = assay: Primary cilium markers in the high content assay (Ivs::tagRFPT, Arl13b, acetylated tubulin); conditions: Ivs::tagRFPT and other PC markers
From the text: as §2
The inventors used the spot-finding algorithm in the RFP channel to find Ivs-rich spots. Each non-overlapping spot was based on a maximum 8 pixel-radius (when using a 40× objective) around a central intensity peak of 5 pixels. A distance of at least 10 pixels was required between adjacent spot centers. Spot peaks had to exceed thresholds of relative intensity compared to the remaining body of the spot as well as to the entire image. The average, maximum and total RFP intensity of each spot were measured. The spots with sufficiently high absolute maxima to pass the selected threshold were classified as positive spots. To form candidate cilia, the inventors selected the brightest 15% of the pixels in each positive spot and merged those pixels into objects so that the brightest parts of adjacent spots could form single, larger cilia-shaped objects. To qualify the candidate cilia as true Ivs-positive cilia, the width of the objects created from merging the brightest pixels in each spot had to be at least 2 pixels and the length to half-width ratio had to exceed 3. (i.e. a 3-pixel long by 2-pixel wide cilium was the minimum accepted cilium size and the length had to be at least 1.5 fold of the width). The mean GFP intensity within these Ivs-positive cilia was used to estimate the ciliary level of Smo protein. The inventors subtracted the background of the mean GFP intensity in the 3-pixel wide area around each candidate cilium to avoid some false positives. Those Ivs-positive cilia that exceed the final mean GFP intensity threshold set for each experiment were deemed Smo-positive cilia. […]
Cells were cultured and treated in 384-well imaging plate precoated with poly-D-Lysine (Greiner Bio-one), fixed with 4% paraformaldehyde (Electron Microscopy Sciences), and stained with Hoechst (Invitrogen). […] Acapella 2.0 software (Evotec Technologies/PerkinElmer) was used to perform multi-parametric image quantification. All the comparative images were scanned with identical microscopic setting and analyzed with the same input parameters.

[3] = tested on: Smo::EGFP/Ivs::tagRFPT cells; assay: Cytotoxicity in vitro in the high content assay; conditions: doses up to 200 μM
Description: Hoechst staining was used to determine the total number of nuclei per well.
Cells were cultured and treated in 384-well imaging plate precoated with poly-D-Lysine (Greiner Bio-one), fixed with 4% paraformaldehyde (Electron Microscopy Sciences), and stained with Hoechst (Invitrogen). Images were collected using Opera High Content Screening System (Perkin Elmer).

T2 sequence (Q99835 28-787): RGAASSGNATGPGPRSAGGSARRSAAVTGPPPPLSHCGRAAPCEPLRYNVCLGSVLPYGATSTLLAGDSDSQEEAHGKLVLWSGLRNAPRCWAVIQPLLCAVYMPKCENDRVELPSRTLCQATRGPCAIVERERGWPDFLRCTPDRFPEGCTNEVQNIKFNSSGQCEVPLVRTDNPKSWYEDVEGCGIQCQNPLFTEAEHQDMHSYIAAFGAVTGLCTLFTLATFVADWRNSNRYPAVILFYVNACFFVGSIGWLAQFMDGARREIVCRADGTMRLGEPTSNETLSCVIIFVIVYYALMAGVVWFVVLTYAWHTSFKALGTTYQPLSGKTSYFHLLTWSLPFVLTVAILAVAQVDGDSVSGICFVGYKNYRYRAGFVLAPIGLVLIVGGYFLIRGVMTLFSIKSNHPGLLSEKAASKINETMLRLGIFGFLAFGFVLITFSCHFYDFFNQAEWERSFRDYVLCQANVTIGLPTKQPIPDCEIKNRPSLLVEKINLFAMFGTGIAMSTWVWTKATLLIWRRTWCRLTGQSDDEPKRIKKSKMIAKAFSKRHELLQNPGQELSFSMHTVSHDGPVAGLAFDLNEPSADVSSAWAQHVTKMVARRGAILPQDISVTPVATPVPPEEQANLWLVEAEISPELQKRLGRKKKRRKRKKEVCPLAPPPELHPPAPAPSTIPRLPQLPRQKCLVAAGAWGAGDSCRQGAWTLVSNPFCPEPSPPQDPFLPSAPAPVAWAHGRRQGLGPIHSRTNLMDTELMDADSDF
T1 sequence (Q99835 28-787 W535L): as the sequence (Q99835 28-787) above, with W508L counted along it

Row | IC50 (Smo) [µM] | IC50 (SmoM2::GFP; 3T3/SmoM2::GFP Overexpression/Ivs::tagRFPT, stimulus none, read-out: IC50, inhibition of ciliary localization of SmoM2::GFP) [µM] | effect on SmoM2 ciliary localization (SmoM2::GFP; SmoM2::EGFP overexpressing cells) | IC50 (Smo::EGFP [1]) | effect on Cyc induced Smo cilial accumulation (Smo::EGFP [2]) | SMILES | effect on primary cilium markers / ciliary structure (primary cilium (PC)) | cytotoxic effects in vitro [3]
1 | > 30 | > 30 | failed to inhibit | ~2 µM and 2 µM | effectively compete with Cyc | CCN(CC)c1ccc(/C=N/NC(=O)c2ccc(O)cc2)cc1 [DY131] | – | –
2 | – | – | – | – | – | CC1(C)O[C@@H]2C[C@H]3[C@@H]4C[C@H](F)C5=CC(=O)C=C[C@]5(C)[C@@]4(F)[C@@H](O)C[C@]3(C)[C@]2(C(=O)CO)O1 [FA, fluocinolone acetonide] | unaltered | no obvious cytotoxic effects
